# Source: publication PMC5068747, “Using C. elegans Forward and Reverse Genetics to Identify New Compounds with Anthelmintic Activity” (PLoS Neglected Tropical Diseases, 2016)
# Where two headings read alike, the source gives them in different places.
# Key:
# [1] = system: C. elegans VC2010 (wild type); test: WormScan screen of C. elegans growth, fecundity, motility and mortality; assay type: in vivo, Caenorhabditis elegans; settings: Caenorhabditis elegans, 120 h, 5 days exposure
# Protocol: All compound libraries were stored in 96-well plates, with 80 drugs per plate (columns 1 and 12 left empty). A BioGrid BG600 pinning robot (Digilab / BioRobotics) was used for compound transfer. The robot uses a 96-pin tool (0.7 mm dia.) to transfer a nominal volume of 340 nL of compound. For retesting, compounds were hand pinned from the original library plates to assay plates using a single 0.7 mm dia. pin. The assay plates were 96-well clear flat-bottom microplates containing 2% χ1666 E.coli bacteria in 0.5X Liquid Nematode Growth Media (LNGM) plus cholesterol (Bacteria were mass-grown in rich media, and harvested by centrifugation to produce a thick paste of bacterial cells that was kept frozen at -20°C. Cells were resuspended at 2% W/V in 0.5X LNGM to produce liquid worm food). Using a COPAS Biosort (Union Biometrica), two L4 to young adult stage VC2010 worms were added to each well of the plate in a final volume of 45 μL. After five days of exposure to the compounds, the plates were scanned and the data analyzed. A five day time period was chosen to be able to observe effects over all stages of the life cycle and through at least one round of replication. The initial proof-of-principle primary screen was performed manually using a dissecting microscope. Phenotypes scored included decreased motility, reduced brood size, and/or death as described previously. For high throughput screening of the Chembridge and Maybridge compound libraries we used the program WormScan, which was adapted for screening 96-well flat-bottom LNGM plates. Using WormScan it was possible to screen four 96-well plates at a time. Plates were scanned twice, at a resolution of 1200 dots per inch, 16-bit grayscale, producing a jpeg image. The light intensity produced by the scanner was sufficient to cause negative phototaxis equivalent to a physical stimulus for mortality determination. The time required to scan four 96-well plates using an Epson Perfection V700 Photo Scanner was less than ten minutes. The time to screen a single plate was less than 1.2 minutes, with less than ten seconds between scans.
# WormScan was used to screen for the same phenotypes as in the manual screen (reduced brood size, reduced behavior/motility response and increased mortality). Two sequential scans for each 96-well plate were aligned to a reference region of interest (ROI). Image analysis was based on a difference image score calculated for each ROI. The difference image score (WormScan score) was normalized using a “percent of control” method to derive a normalized WormScan score. […] Wild-type growth in 1% DMSO (Fig 1A) results in a normalized WormScan score of 100. Exposure to 50 nM ivermectin gives a score of 0 (Fig 1C), and complete absence of worms gives a score of 0 (Fig 1D). For the primary screen the WormScan score was calculated using custom macro scripts written for Fiji. For secondary screening and any subsequent studies the WormScan score was calculated using a standalone Java program (See supplemental). Probit regression of mortality was calculated using Mathematica 8.0.
# [2] = system: Human embryonic kidney (HEK293) cells; test: HEK293 viability, MTT colorimetric assay; assay type: cell-based; settings: Homo sapiens, read-out: Mammalian IC50
# Protocol: Potential anthelmintic compounds identified from primary screening were further tested against mammalian cells and yeast to determine whether they had deleterious effects in those organisms. Human embryonic kidney (HEK293) cells were grown in Dulbecco’s Modified Eagle’s Medium (DMEM; Sigma) containing 5% fetal bovine serum (FBS; Sigma) in 96-well plates tissue culture plates. Compounds were added 24h post-plating at 10, 30, 100, or 300 μM final concentrations. Dimethyl sulfoxide (DMSO) was used as a negative control at 0.1%. Cells were treated for 24 or 48 hours, after which time viability was assessed using a 3-(4,5-dimethylthiazol-2-yl)-2,5-diphenyltetrazolium bromide (MTT) colorimetric assay. Percent viability was determined by comparing treatment values to DMSO control values.
# [3] = system: S. cerevisiae yeast strain BY4743; test: Yeast growth rate (OD600) dose titration; assay type: cell-based; settings: Saccharomyces cerevisiae; BY4743, YPD, growth rate reduced by 50%
# Protocol: The S. cerevisiae yeast strain BY4743 (MATa/α his3Δ1/his3Δ1 leu2Δ0/leu2Δ0 LYS2/lys2Δ0 met15Δ0/MET15 ura3Δ0/ura3Δ0) was used for all yeast experiments and was grown using yeast extract peptone dextrose (YPD) media at pH 7 [52]. BY4743 was grown overnight to initial log phase and was then grown with the compound identified in the C. elegans assay. The growth rate was quantified by continuously monitoring the optical density of the liquid yeast growth at OD600. The compound was screened in a dose-titration in YPD as described. The IC50 was the concentration required to reduce the growth rate or Average G value by 50% compared to a vehicle control (2% DMSO).
# [4] = system: C. elegans DA1316 (avr-14(ad1302); avr-15(vu227); glc-1(pk54), ivermectin resistant); test: IC50 on ivermectin resistant C. elegans strain; assay type: in vivo, Caenorhabditis elegans; settings: Caenorhabditis elegans, 120 h; 5 days exposure, 2 L4 per well, three biological replicates
# [5] = system: C. elegans CB193 (unc-29(e193), levamisole resistant); test: IC50 on levamisole resistant C. elegans strain; assay type: in vivo, Caenorhabditis elegans; settings: Caenorhabditis elegans, 120 h; 5 days exposure, 2 L4 per well, three biological replicates
# [6] = system: C. elegans RB2119 (acr-23(ok2804), monepantel-resistant); test: IC50 on amino-acetonitrile resistant C. elegans strain; assay type: in vivo, Caenorhabditis elegans; settings: Caenorhabditis elegans, 120 h; 5 days exposure, 2 L4 per well, three biological replicates; read-out: IC50, strain RB2119 (amino-acetonitriles)
# [7] = system: C. elegans pink-1 mutant strains; test: Resistance of pink-1 mutant strains (MMP / knockout) to CID 2747322; assay type: in vivo, Caenorhabditis elegans
compound,measurement,setting,value
"COc1ccc(OCCNC(=O)c2ccccc2C(F)(F)F)cc1 [CID 2747322, N-[2-(4-methoxyphenoxy)ethyl]-2-(trifluoromethyl)benzamide]",IC50,"[1]; 2 L4 per well, three biological replicates, read-out: IC50, strain VC2010 (wild type)",18 µM
same,IC50,"[1]; C. elegans, read-out: Nematode IC50",18 µM
same,IC50,[2],171 µM
same,IC50,[3],> 1000 µM
same,IC50,[4],16 µM
same,IC50,[5],14 µM
same,IC50,[6],5 µM
same,Resistance,"[7]; strain RB2547, pink-1 Knockout",none
same,Resistance,"[7]; strain VC20205, pink-1 W562stop",none
same,Resistance,"[7]; strain VC20423, pink-1 V373I",none
same,Resistance,"[7]; strain VC20470, pink-1 E162K",none
same,Resistance,"[7]; strain VC20521, pink-1 P226S",sensitive
same,Resistance,"[7]; strain VC20546, pink-1 P32L",sensitive
same,Resistance,"[7]; strain VC20588, pink-1 A628T",none
same,Resistance,"[7]; strain VC30104, pink-1 Knockout",none
same,Resistance,"[7]; strain VC30182, pink-1 G415E",none
same,Resistance,"[7]; strain VC40096, pink-1 M1I",none
same,Resistance,"[7]; strain VC40194, pink-1 D378N",resistant
same,Resistance,"[7]; strain VC40287, pink-1 S341N",resistant
same,Resistance,"[7]; strain VC40373, pink-1 A365T",none
same,Resistance,"[7]; strain VC40385, pink-1 L232F",resistant
same,Resistance,"[7]; strain VC40392, pink-1 T65I",none
same,Resistance,"[7]; strain VC40527, pink-1 V334I",none
same,Resistance,"[7]; strain VC40694, pink-1 M556L",resistant
same,Resistance,"[7]; strain VC40738, pink-1 E353K",none
same,Resistance,"[7]; strain VC41008, pink-1 L180F",resistant
